Test results published in patent US8703821B2, “Dialkyl ether delivery agents” (Emisphere Technologies Inc., priority 2006, dated 2014).

Legend:
[1] = Insulin oral delivery in rats; type: in vivo, rat; details: oral gavage to fasted male Sprague-Dawley rats; dosing solution delivery agent 200 mg/ml + human recombinant insulin 0.5 mg/ml
[2] = Heparin (LMWH) oral delivery in rats, plasma LMWH by anti-Factor Xa assay; type: in vivo, rat; details: male Sprague-Dawley rats, delivery agent 300 mg/kg, LMWH 100 IU/kg, volume 3 ml/kg, 25% aqueous propylene glycol
Procedure: Oral dosing solutions containing delivery agent compound and heparin sodium USP were prepared in 25% aqueous propylene glycol. Either the sodium salt of the delivery agent compound was used or the free acid was converted to the sodium salt with one equivalent of sodium hydroxide. The delivery agent compound and heparin (about 166-182 IU/mg) were mixed by vortex as dry powders. This dry mixture was dissolved in 25% v/v aqueous propylene glycol, vortexed, and placed in a sonicator (about 37° C.). The pH was adjusted to about 7 (6.5-8.5) with aqueous NaOH (2N). The dosing solution was sonicated to produce a clear solution. The final volume was adjusted to about 3.0 ml.
Male Sprague-Dawley rats were fasted for 24 hours and anesthetized with ketamine hydrochloride (88 mg/kg) intramuscularly immediately prior to dosing and again as needed to maintain anesthesia. A dosing group of five animals were administered one of the dosing solutions. An 11 cm Rusch 8 French catheter was adapted to a 1 ml syringe with a pipette tip. […]
Citrated blood samples were collected by cardiac puncture following the administration of ketamine (88 mg/kg), typically at 0.25, 0.5, 1.0 and 1.5 hours after dosing. […] LMWH absorption was verified by an increase in plasma LMWH measured by the anti-Factor Xa assay CHROMOSTRATE™ Heparin anti-Xa assay (available from Organon Teknika Corporation, Durham, N.C.).

Row | melting point | Structure (SMILES) | % Glucose Cmin (Rat) [1] | Mean Peak Plasma LMWH Concentration (IU/ml) ± SD [2]
1 |  | O=C(O)COCCCCc1ccccc1 [Compound 26] | −21.0% | 
2 | 67 to 68 °C | O=C(O)COCCc1ccc(F)cc1 [Compound 7] | −41.9% | 
3 |  | COc1ccccc1CCOCC(=O)O [Compound 36] | −4.4% | 
4 |  | O=C(O)COCCc1ccccc1F [Compound 8] | −33.5% | 
5 | 44 to 45 °C | Cc1ccc(COCC(=O)O)cc1 [Compound 10] | −46.6% | 
6 |  | O=C(O)COCc1ccc(F)cc1 [Compound 16] | −18.1% | 
7 |  | O=C(O)COCCCCCc1ccccc1 [Compound 32] | −15.1% | 
8 |  | O=C(O)COCCCc1ccc(Cl)cc1 [Compound 42] | −20.4% | 
9 |  | COc1ccc(CCCOCC(=O)O)cc1 [Compound 29] | −36.3% | 
10 | 50 to 52 °C | Cc1ccc(CCOCC(=O)O)cc1 [Compound 2] | −54.3% | 
11 |  | O=C(O)COCc1ccc(Cl)cc1 [Compound 13] | −45.3% | 
12 | 53 to 54 °C | Cc1ccc(COCC(=O)O)cc1Cl [Compound 23] | −5.5% | 
13 |  | O=C(O)COCc1cccc(F)c1 [Compound 17] | −17.6% | 
14 |  | COc1ccc(CCCCOCC(=O)O)cc1 [Compound 28] | −10.6% | 
15 |  | O=C(O)COCCc1ccccc1 [Compound 34] | −32.2% | 
16 |  | O=C(O)COCc1ccccc1F [Compound 18] | −14.6% | 
17 |  | O=C(O)COCCc1ccccc1Cl [Compound 5] | −39.7% | 
18 |  | O=C(O)COCc1cccc(Cl)c1 [Compound 14] | −35.3% | 
19 |  | O=C(O)COCCc1ccc(F)cc1Cl [Compound 37] | −30.0% | 
20 |  | O=C(O)COCCc1ccccc1C(F)(F)F [Compound 27] | −11.3% | 
21 |  | Cc1ccc(CCCOCC(=O)O)cc1 [Compound 30] | −19.5% | 

Row | melting point | Structure (SMILES) | % Glucose Cmin (Rat) [1] | Mean Peak Plasma LMWH Concentration (IU/ml) ± SD [2]
22 |  | Cc1ccccc1CCCOCC(=O)O [Compound 31] | −6.1% | 
23 |  | Cc1cccc(CCOCC(=O)O)c1 [Compound 3, Sodium (2-m-Tolyl-ethoxy)-acetate] | −30.1% | 
24 |  | O=C([O-])CCCCCCCNC(=O)c1ccccc1O.[Na+] [Delivery Agent A, monosodium salt of N-(8-[2-hydroxybenzoyl]-amino)caprylic acid] |  | 0.984 IU/ml
25 |  | O=C(O)COCCCc1ccccc1 [Compound 35] | −26.1% | 
26 | 54 to 56 °C | Cc1ccc(COCC(=O)O)c(C)c1 [Compound 22] |  | 
27 | 42 to 43 °C | Cc1ccc(C)c(CCOCC(=O)O)c1 [Compound 24] | −24.7% | 
28 |  | O=C(O)COCCc1cccc(Cl)c1 [Compound 6] | −20.9% | 
29 | 50 to 51 °C | Cc1cc(C)cc(CCOCC(=O)O)c1 [Compound 25] | −4.6% | 
30 |  | O=C(O)COC1Cc2ccccc2C1 [Compound 40] | −15.8% | 
31 | 36 to 37 °C | O=C(O)COCCc1cccc(F)c1 [Compound 9] | −29.3% | 
32 | 51 to 52 °C | O=C(O)COCCc1ccc(Cl)cc1 [Compound 4] | −54.3% | 
33 |  | O=C(O)COC1CCc2ccccc21 (stereo not drawn) [Compound 41] | −27.8% | 
34 | 81 to 83 °C | Cc1cc(C)c(COCC(=O)O)c(C)c1 [Compound 19, (2,4,6-Trimethyl-benzyloxy)-acetic acid] | −27.5% | 
35 |  | O=C(O)COCc1ccccc1Cl [Compound 15] | −39.9% | 
36 |  | Cc1ccccc1CCOCC(=O)O [Compound 1, (2-o-Tolyl-ethoxy)-acetic acid] | −36.5% | 
37 |  | Cc1cccc(COCC(=O)O)c1 [Compound 11] | −23.7% | 
38 | 74 to 75 °C | Cc1ccc(C)c(COCC(=O)O)c1 [Compound 21] | −35.0% | 
39 |  | O=C(O)COCCc1ccc(Br)cc1 [Compound 39] | −31.6% | 
40 |  | COc1ccc(CCOCC(=O)O)cc1 [Compound 33] | −9.8% | 
41 | 103 to 105 °C | Cc1cc(C)c(C)c(COCC(=O)O)c1C [Compound 20] |  | 
